Assay results: US10562912B2 (C&C Research Laboratories, priority 2013, dated 2020)

Experiments:
Format in all cases: cell-based
[1] = molecular target: T1, STAT3 (Homo sapiens, UniProt P40763); assay: STAT3 reporter gene assay (luciferase), LNCaP stable cell line (pSTAT3-TA-luc), IL-6 stimulation
T1 construct: plasmid pSTAT3-TA-luc), which contains a stably operating STAT3 promoter; endogenous in cells
Method in brief: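 LNCaP cells stably carrying pSTAT3-TA-luc, in RPMI1640 with 3% DCC-FBS, were treated with compound and then stimulated with 10 ng/mL IL-6 for 24–48 h at 37 °C. Luciferase activity was measured in lysates. A parallel plate measured viability by CellTiter-Glo, with stimulated 0.1% DMSO wells as the positive control.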

[2] = system: MDA-MB-231; assay: Cell growth inhibition assay, breast cancer cell line MDA-MB-231; conditions: Homo sapiens; MDA-MB-231 breast cancer cell line, 5,000 cells/well
Procedure: The inhibitory effects of the compounds of the present invention against the growth of cancer cells were evaluated as shown below. The cancer cell lines including stomach cancer cell line (AGS), breast cancer cell lines (MDA-MB-231, MDA-MB-468, and BT-549), prostate cancer cell lines (LNCaP and DU-145), colon cancer cell line (HCT116), ovarian cancer cell line (SW626), liver cancer cell line (Hep3B), kidney cancer cell line (ACHN), lung cancer cell line (NCI-H23) and blood cancer cell lines (HEL92.1.7 and U266) were cultured under the protocol provided by each supplier. A medium supplemented with 10 ng/mL of IL-6 was used for LNCaP, a prostate cancer cell line, when treated with a drug. Each type of cells to be used in experiments were sub-cultured in a 96-well plate by counting the exact number of cells using Tali™ Image-based Cytometer (Life Technologies). In a 96-well plate, AGS, HCT116, and DU-145 were employed with 3,000 cells/well; NCI-H23, SW626, Hep3B, ACHN, BT-549, MDA-MB-231, HEL92.1.7, and U266 were employed with 5,000 cells/well; and LNCaP and MDA-MB-468 were employed with 10,000 cells/well. The cells were treated with the compounds listed in Examples which were diluted in various concentrations. Upon completion of the compounds treatment, AGS, HCT116, SW626, DU145, NCI-H23, Hep3B, ACHN, BT-549, LNCaP, HEL92.1.7, and U266 cells were cultured at 37° C. under 5% CO2 for from 72 to 96 hours, and MDA-MB-231 and MDA-MB-468 cells were cultured at 37° C. in air for from 72 to 96 hours. Subsequently, the cells were observed under microscope and drug precipitation and particular findings were investigated and recorded. And then, the 96-well plate was placed at room temperature for 30 minutes, added with 20 μL/well of CellTiter-Glo solution (Cat No. G7573, Promega) and shaken for 10 minutes, followed by being subjected to the measurement using PHERAstar™ microplate reader (BMG LABTECH) according to the supplier's general luminometer protocol. Wells where only culture liquid added without cell plating were used as a negative control, whereas wells where culture liquid containing 0.1% DMSO instead of the compounds listed in Examples were used as a positive control.

[3] = system: LNCaP; assay: Cell growth inhibition assay, prostate cancer cell line LNCaP (medium with 10 ng/mL IL-6); conditions: Homo sapiens, medium supplemented with 10 ng/mL of IL-6, 10,000 cells/well

T1 sequence (P40763 whole entry): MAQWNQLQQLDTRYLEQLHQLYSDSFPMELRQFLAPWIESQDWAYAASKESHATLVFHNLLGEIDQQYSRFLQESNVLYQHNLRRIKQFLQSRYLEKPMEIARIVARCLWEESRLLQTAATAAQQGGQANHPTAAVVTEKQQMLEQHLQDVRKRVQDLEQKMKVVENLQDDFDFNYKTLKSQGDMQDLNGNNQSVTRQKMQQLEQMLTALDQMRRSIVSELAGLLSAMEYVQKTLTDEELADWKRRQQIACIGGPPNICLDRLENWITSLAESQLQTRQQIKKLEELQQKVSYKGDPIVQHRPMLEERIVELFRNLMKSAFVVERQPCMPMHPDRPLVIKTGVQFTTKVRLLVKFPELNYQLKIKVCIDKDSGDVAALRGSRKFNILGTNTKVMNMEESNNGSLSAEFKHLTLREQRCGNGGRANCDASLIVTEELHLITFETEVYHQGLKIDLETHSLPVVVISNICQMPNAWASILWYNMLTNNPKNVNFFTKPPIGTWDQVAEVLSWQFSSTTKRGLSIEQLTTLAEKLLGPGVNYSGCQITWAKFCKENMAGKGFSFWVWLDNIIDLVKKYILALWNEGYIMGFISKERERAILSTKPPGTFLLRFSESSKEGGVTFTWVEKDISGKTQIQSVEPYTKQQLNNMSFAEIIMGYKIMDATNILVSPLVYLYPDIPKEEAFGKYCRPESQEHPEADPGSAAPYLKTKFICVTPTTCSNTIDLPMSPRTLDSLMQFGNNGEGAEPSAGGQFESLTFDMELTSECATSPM

| SMILES | IC50 [1] | IC50 [2] | IC50 [3] |
| --- | --- | --- | --- |
| CS(=O)(=O)Nc1ccc2sc(C(=O)Nc3cc(OC(F)F)cc(C4(c5ccc(F)cc5)CC4)c3)cc2c1 [Example 429, N-(3-(difluoromethoxy)-5-(1-(4-fluorophenyl)cyclopropyl)phenyl)-5-(methylsulfonamido)benzo[b]thiophene-2-carboxamide] | 0.19 µM | 0.086 µM | 0.35 µM |
| CC(C)(c1cccc(NC(=O)c2cc3cc(NS(C)(=O)=O)ccc3s2)c1)c1ccccc1F [Example 31, N-(3-(2-(2-fluorophenyl)propan-2-yl)phenyl)-5-(methylsulfonamido)benzo[b]thiophene-2-carboxamide] | 0.19 µM | 0.026 µM | 0.49 µM |
| CS(=O)(=O)Nc1ccc2oc(C(=O)Nc3cccc(-c4ccc(F)cc4F)c3)cc2c1 [Example 238, N-(2′,4′-difluoro-[1,1′-biphenyl]-3-yl)-5-(methylsulfonamido)benzofuran-2-carboxamide] | 0.27 µM | 0.55 µM | 2.4 µM |
| CC(=O)c1cc(NC(=O)c2cc3ccc(NS(C)(=O)=O)cc3[nH]2)cc(-c2ccc(F)cc2F)c1 [Example 245, N-(5-acetyl-2′,4′-difluoro-[1,1′-biphenyl]-3-yl)-6-(methylsulfonamido)-1H-indole-2-carboxamide] | 1.4 µM | 2.6 µM | 4.9 µM |
| CS(=O)(=O)Nc1ccc2sc(C(=O)Nc3cc(OC(F)F)cc(-c4ccc(F)cc4F)c3)cc2c1 [Example 370, N-(5-(difluoromethoxy)-2′,4′-difluoro-[1,1′-biphenyl]-3-yl)-5-(methylsulfonamido)benzo[b]thiophene-2-carboxamide] | 0.21 µM | 0.032 µM | 0.6 µM |
| CS(=O)(=O)Nc1ccc2cc(C(=O)Nc3cccc(-c4ccc(F)cc4F)c3)sc2c1 [Example 242, N-(2′,4′-difluoro-[1,1′-biphenyl]-3-yl)-6-(methylsulfonamido)benzo[b]thiophene-2-carboxamide] | 0.96 µM | 0.54 µM | 4 µM |
| CC(C)(Oc1cccc(C(C)(C)c2cc(Br)cc(NC(=O)c3cc4cc(NS(C)(=O)=O)ccc4s3)c2)c1)C(N)=O [Example 45, N-(3-(2-(3-((1-amino-2-methyl-1-oxopropan-2-yl)oxy)phenyl)propan-2-yl)-5-bromophenyl)-5-(methylsulfonamido)benzo[b]thiophene-2-carboxamide] | 1.3 µM | 0.38 µM | 4.4 µM |
| CN(C)C(=O)c1cc(NC(=O)c2cc3ccc(NS(C)(=O)=O)cc3[nH]2)cc(-c2ccc(F)cc2F)c1 [Example 319, N-(5-(dimethylcarbamoyl)-2′,4′-difluoro-[1,1′-biphenyl]-3-yl)-6-(methylsulfonamido)-1H-indole-2-carboxamide] | > 10 µM | > 10 µM | > 10 µM |
| CS(=O)(=O)Nc1ccc2cc(C(=O)Nc3cccc(C(=O)c4ccccc4)c3)[nH]c2c1 [Example 434, N-(3-benzoylphenyl)-6-(methylsulfonamido)-1H-indole-2-carboxamide] | 6.5 µM | 2.9 µM | > 10 µM |
| CN(C)c1cc(NC(=O)c2cc3ccc(NS(C)(=O)=O)cc3[nH]2)cc(-c2ccc(F)cc2F)c1 [Example 372, N-(5-(dimethylamino)-2′,4′-difluoro-[1,1′-biphenyl]-3-yl)-6-(methylsulfonamido)-1H-indole-2-carboxamide] | 0.34 µM | 0.46 µM | 3.5 µM |
| CS(=O)(=O)Nc1ccc2cc(C(=O)Nc3cc(-c4ccc(C(F)(F)F)nc4)cc(-c4ccc(F)cc4F)c3)[nH]c2c1 [Example 358, N-(2′,4′-difluoro-5-(6-(trifluoromethyl)pyridin-3-yl)-[1,1′-biphenyl]-3-yl)-6-(methylsulfonamido)-1H-indole-2-carboxamide] | 1.7 µM | 1.2 µM | 8 µM |
| COc1cc(NC(=O)c2cc3ccc(NS(C)(=O)=O)cc3[nH]2)cc(C(C)(C)c2cccc(OC(F)(F)F)c2)c1 [Example 4, N-(3-methoxy-5-(2-(3-(trifluoromethoxy)phenyl)propan-2-yl)phenyl)-6-(methylsulfonamido)-1H-indole-2-carboxamide] | 0.34 µM | 0.052 µM | 0.82 µM |
| COc1cc(NS(C)(=O)=O)cc2cc(C(=O)Nc3cccc(C(C)(C)c4ccc(F)cc4)c3)oc12 [Example 113, N-(3-(2-(4-fluorophenyl)propan-2-yl)phenyl)-7-methoxy-5-(methylsulfonamido)benzofuran-2-carboxamide] | 8.9 µM | 6.4 µM | > 10 µM |
| CS(=O)(=O)Nc1ccc2cc(C(=O)Nc3cc(-c4cccs4)cc(-c4ccc(F)cc4F)c3)[nH]c2c1 [Example 354, N-(2′,4′-difluoro-5-(thiophen-2-yl)-[1,1′-biphenyl]-3-yl)-6-(methylsulfonamido)-1H-indole-2-carboxamide] | 0.33 µM | 0.71 µM | 5.7 µM |
| CS(=O)(=O)Nc1ccc2sc(C(=O)Nc3cccc(-c4ccc(F)cc4F)c3)cc2c1 [Example 237, N-(2′,4′-difluoro-[1,1′-biphenyl]-3-yl)-5-(methylsulfonamido)benzo[b]thiophene-2-carboxamide] | 0.11 µM | 0.01 µM | 0.61 µM |
| CC(C)(C)OC(=O)n1cccc1-c1cc(NC(=O)c2cc3ccc(NS(C)(=O)=O)cc3[nH]2)cc(-c2ccc(F)cc2F)c1 [Example 350, tert-butyl 2-(2′,4′-difluoro-5-(6-(methylsulfonamido)-1H-indole-2-carboxamido)-[1,1′-biphenyl]-3-yl)-1H-pyrrole-1-carboxylate] | 1.5 µM | 2.3 µM | 6.5 µM |

More lines, now with the values ahead:

| IC50 [1] | IC50 [2] | IC50 [3] | SMILES |
| --- | --- | --- | --- |
| 0.3 µM | 9.9 µM | > 10 µM | CS(=O)(=O)Nc1ccc2cc(C(=O)Nc3cc(-c4cc[nH]n4)cc(-c4ccc(F)cc4F)c3)[nH]c2c1 [Example 351, N-(2′,4′-difluoro-5-(1H-pyrazol-3-yl)-[1,1′-biphenyl]-3-yl)-6-(methylsulfonamido)-1H-indole-2-carboxamide] |
| 0.24 µM | 0.22 µM | 1.3 µM | CS(=O)(=O)Nc1ccc2cc(C(=O)Nc3cc(F)cc(-c4ccc(F)cc4F)c3)[nH]c2c1 [Example 312, 6-(methylsulfonamido)-N-(2′,4′,5-trifluoro-[1,1′-biphenyl]-3-yl)-1H-indole-2-carboxamide] |
| 3.3 µM | 3.2 µM | 4.2 µM | CC(C)(c1ccc(F)cc1)c1cccc(NC(=O)c2cc3cc(OC(F)(F)F)ccc3[nH]2)c1 [Example 25, N-(3-(2-(4-fluorophenyl)propan-2-yl)phenyl)-5-(trifluoromethoxy)-1H-indole-2-carboxamide] |
| 0.14 µM | 0.19 µM | 0.92 µM | CC(C)(c1ccc(F)cc1)c1cc(NC(=O)c2cc3ccc(NS(C)(=O)=O)cc3[nH]2)cc(OC(F)F)c1 [Example 17, N-(3-(difluoromethoxy)-5-(2-(4-fluorophenyl)propan-2-yl)phenyl)-6-(methylsulfonamido)-1H-indole-2-carboxamide] |
| 0.059 µM | 0.008 µM | 0.36 µM | CC(C)(c1ccc(F)cc1)c1cccc(NC(=O)c2cc3cc(NS(C)(=O)=O)ccc3s2)c1 [Example 26, N-(3-(2-(4-fluorophenyl)propan-2-yl)phenyl)-5-(methylsulfonamido)benzo[b]thiophene-2-carboxamide] |
| 0.28 µM | 0.37 µM | 1.7 µM | CS(=O)(=O)Nc1ccc2oc(C(=O)Nc3cc(Br)cc(-c4ccc(F)cc4F)c3)cc2c1 [Example 306, N-(5-bromo-2′,4′-difluoro-[1,1′-biphenyl]-3-yl)-5-(methylsulfonamido)benzofuran-2-carboxamide] |
| > 10 µM | 6.1 µM | > 10 µM | CC(C)(c1cccc(CN2CCNCC2)c1)c1cc(Br)cc(NC(=O)c2cc3ccc(NS(C)(=O)=O)cc3[nH]2)c1 [Example 119, N-(3-bromo-5-(2-(3-(piperazin-1-ylmethyl)phenyl)propan-2-yl)phenyl)-6-(methylsulfonamido)-1H-indole-2-carboxamide] |
